From patent US10485236B2, “Triazole derivatives, intermediates thereof and their use as fungicides” (Bayer CropScience Aktiengesellschaft, priority 2015, dated 2019)

How the values were obtained:
Puccinia recondita = test: Example B: in vivo preventive test on Puccinia recondita (brown rust on wheat); conditions: 264 h, 500 ppm of active ingredient, wheat plants, preventive spray, evaluated 11 days after inoculation, read-out: efficacy
Method: (§1) Example B: In Vivo Preventive Test on Puccinia recondita (Brown Rust on Wheat) [table] The active ingredients are made soluble and homogenized in a mixture of Dimethyl sulfoxide/Acetone//Tween® 80 and then diluted in water to the desired concentration. The young plants of wheat are treated by spraying the active ingredient prepared as described above. Control plants are treated only with an aqueous solution of Acetone/Dimethyl sulfoxide/Tween® 80. After 24 hours, the plants are contaminated by spraying the leaves with an aqueous suspension of Puccinia recondita spores. The contaminated wheat plants are incubated for 24 hours at 20° C. and at 100% relative humidity and then for 10 days at 20° C. and at 70-80% relative humidity. The test is evaluated 11 days after the inoculation. 0% means an efficacy which corresponds to that of the control plants while an efficacy of 100% means that no disease is observed.

Sphaerotheca fuliginea = test: Example D: in vivo preventive test on Sphaerotheca fuliginea (powdery mildew on cucurbits); conditions: Podosphaera fuliginea, 360 h; 500 ppm of active ingredient; gherkin plants, preventive spray; evaluated 15 days after inoculation; read-out: efficacy
Method: Example D: In Vivo Preventive Test on Sphaerotheca fuliginea (Powdery Mildew on Cucurbits) [table] The active ingredients are made soluble and homogenized in a mixture of Dimethyl sulfoxide/Acetone//Tween® 80 and then diluted in water to the desired concentration. The young plants of gherkin are treated by spraying the active ingredient prepared as described above. Control plants are treated only with an aqueous solution of Acetone/Dimethyl sulfoxide/Tween® 80. After 24 hours, the plants are contaminated by spraying the leaves with an aqueous suspension of Sphaerotheca fuliginea spores. The contaminated gherkin plants are incubated for 72 hours at 18° C. and at 100% relative humidity and then for 12 days at 20° C. and at 70-80% relative humidity. The test is evaluated 15 days after the inoculation. 0% means an efficacy which corresponds to that of the control plants while an efficacy of 100% means that no disease is observed.

Uromyces appendiculatus = test: Example E: in vivo preventive test on Uromyces appendiculatus (bean rust); conditions: 264 h, 500 ppm of active ingredient, bean plants, preventive spray, evaluated 11 days after inoculation, read-out: efficacy
Method: as §1, with “E:” for “B:”, “Uromyces appendiculatus (Bean Rust)” for “Puccinia recondita (Brown Rust on Wheat)”, “bean” for “wheat”, “Uromyces appendiculatus” for “Puccinia recondita”

Alternaria solani = test: Example F: in vivo preventive test on Alternaria test (tomatoes); conditions: 72 h, 100 ppm of active ingredient, preventive spray, evaluated 3 days after inoculation, read-out: efficacy
Method: Example F: In Vivo Preventive Test on Alternaria Test (Tomatoes) [table] To produce a suitable preparation of active compound, 1 part by weight of active compound is mixed with the stated amounts of solvent and emulsifier, and the concentrate is diluted with water to the desired concentration. To test for preventive activity, young plants are sprayed with the preparation of active compound at the stated rate of application. After the spray coating has dried on, the plants are inoculated with an aqueous spore suspension of Alternaria solani. The plants are then placed in an incubation cabinet at approximately 20° C. and a relative atmospheric humidity of 100%. The test is evaluated 3 days after the inoculation. 0% means an efficacy which corresponds to that of the untreated control while an efficacy of 100% means that no disease is observed.

Phakopsora pachyrhizi = test: Example G: in vivo preventive test on Phakopsora test (soybeans); conditions: 168 h, 100 ppm of active ingredient, preventive spray, evaluated 7 days after inoculation, read-out: efficacy
Method: Example G: In Vivo Preventive Test on Phakopsora Test (Soybeans) [table] To produce a suitable preparation of active compound, 1 part by weight of active compound is mixed with the stated amounts of solvent and emulsifier, and the concentrate is diluted with water to the desired concentration. To test for preventive activity, young plants are sprayed with the preparation of active compound at the stated rate of application. After the spray coating has dried on, the plants are inoculated with an aqueous spore suspension of the causal agent of soybean rust (Phakopsora pachyrhizi) and stay for 24 h without light in an incubation cabinet at approximately 24° C. and a relative atmospheric humidity of 95%. The plants remain in the incubation cabinet at approximately 24° C. and a relative atmospheric humidity of approximately 80% and a day/night interval of 12 h. The test is evaluated 7 days after the inoculation. 0% means an efficacy which corresponds to that of the untreated control, while an efficacy of 100% means that no disease is observed.

Venturia inaequalis = test: Example H: in vivo preventive test on Venturia test (apples); conditions: 240 h, 100 ppm of active ingredient, preventive spray, evaluated 10 days after inoculation, read-out: efficacy
Method: Example H: In Vivo Preventive Test on Venturia Test (Apples) [table] To produce a suitable preparation of active compound, 1 part by weight of active compound is mixed with the stated amounts of solvent and emulsifier, and the concentrate is diluted with water to the desired concentration. To test for preventive activity, young plants are sprayed with the preparation of active compound at the stated rate of application. After the spray coating has dried on, the plants are inoculated with an aqueous conidia suspension of the causal agent of apple scab (Venturia inaequalis) and then remain for 1 day in an incubation cabinet at approximately 20° C. and a relative atmospheric humidity of 100%. The plants are then placed in a greenhouse at approximately 21° C. and a relative atmospheric humidity of approximately 90%. The test is evaluated 10 days after the inoculation. 0% means an efficacy which corresponds to that of the untreated control, while an efficacy of 100% means that no disease is observed.

Puccinia triticina = test: Example K: in vivo preventive Puccinia triticina test (wheat); conditions: 192 h, 500 ppm of active ingredient, preventive spray, evaluated 8 days after inoculation, read-out: efficacy
Method: Example K: In Vivo Preventive Puccinia Triticina Test (Wheat)
To produce a suitable preparation of active compound, 1 part by weight of active compound or active compound combination is mixed with the stated amounts of solvent and emulsifier, and the concentrate is diluted with water to the desired concentration.
To test for preventive activity, young plants are sprayed with the preparation of active compound or active compound combination at the stated rate of application.
After the spray coating has been dried, the plants are sprayed with a spore suspension of Puccinia triticina. The plants remain for 48 hours in an incubation cabinet at approximately 20° C. and a relative atmospheric humidity of approximately 100%.
The plants are placed in the greenhouse at a temperature of approximately 20° C. and a relative atmospheric humidity of approximately 80%.
The test is evaluated 8 days after the inoculation. 0% means an efficacy which corresponds to that of the untreated control, while an efficacy of 100% means that no disease is observed.

CC(O)(Cn1cncn1)c1ccc(Oc2ccc(Cl)cc2)nc1C(F)(F)F (centres unmarked) [I.01, 2-[6-(4-chlorophenoxy)-2-(trifluoromethyl)-3-pyridyl]-1-(1,2,4-triazol-1-yl)propan-2-ol]
pest or weed control at 500 ppm (Puccinia recondita): 90 to 100%
pest or weed control at 500 ppm (Sphaerotheca fuliginea): 90 to 100%
pest or weed control at 500 ppm (Uromyces appendiculatus): 90 to 100%
pest or weed control at 100 ppm (Alternaria solani): 90 to 100%
pest or weed control at 100 ppm (Phakopsora pachyrhizi): 90 to 100%
pest or weed control at 100 ppm (Venturia inaequalis): 90 to 100%
pest or weed control at 500 ppm (Puccinia triticina): 90 to 100%

O=C(Cn1cncn1)c1ccc(Oc2ccc(Cl)cc2)nc1C(F)(F)F [VII.01, 1-[6-(4-chlorophenoxy)-2-(trifluoromethyl)-3-pyridyl]-2-(1,2,4-triazol-1-yl)ethanone]
pest or weed control at 500 ppm (Puccinia recondita): 90 to 100%
pest or weed control at 500 ppm (Sphaerotheca fuliginea): 90 to 100%
pest or weed control at 500 ppm (Uromyces appendiculatus): 90 to 100%
pest or weed control at 100 ppm (Alternaria solani): 80 to 89%
pest or weed control at 100 ppm (Phakopsora pachyrhizi): 80 to 89%
pest or weed control at 100 ppm (Venturia inaequalis): 90 to 100%
pest or weed control at 500 ppm (Puccinia triticina): 90 to 100%

Cc1ccc(Oc2ccc(C(O)Cn3cncn3)c(Cl)n2)cc1Cl (centres unmarked) [I.16]
pest or weed control at 500 ppm (Puccinia recondita): 80 to 89%
pest or weed control at 500 ppm (Sphaerotheca fuliginea): 90 to 100%
pest or weed control at 500 ppm (Uromyces appendiculatus): 90 to 100%
pest or weed control at 100 ppm (Alternaria solani): 90 to 100%
pest or weed control at 100 ppm (Phakopsora pachyrhizi): 90 to 100%
pest or weed control at 100 ppm (Venturia inaequalis): 90 to 100%

OC(Cn1cncn1)c1ccc(Oc2ccc(Cl)cc2)nc1C(F)(F)F (centres unmarked) [I.03, 1-[6-(4-chlorophenoxy)-2-(trifluoromethyl)-3-pyridyl]-2-(1,2,4-triazol-1-yl)ethanol]
pest or weed control at 500 ppm (Puccinia recondita): 90 to 100%
pest or weed control at 500 ppm (Sphaerotheca fuliginea): 90 to 100%
pest or weed control at 500 ppm (Uromyces appendiculatus): 90 to 100%
pest or weed control at 100 ppm (Alternaria solani): 80 to 89%
pest or weed control at 100 ppm (Phakopsora pachyrhizi): 90 to 100%
pest or weed control at 100 ppm (Venturia inaequalis): 90 to 100%
pest or weed control at 500 ppm (Puccinia triticina): 90 to 100%

CC(O)(Cn1cncn1)c1ccc(Oc2ccc(C(F)F)cc2)nc1Cl (centres unmarked) [I.39]
pest or weed control at 500 ppm (Puccinia recondita): 90 to 100%
pest or weed control at 500 ppm (Sphaerotheca fuliginea): 90 to 100%
pest or weed control at 500 ppm (Uromyces appendiculatus): 90 to 100%
pest or weed control at 100 ppm (Alternaria solani): 90 to 100%
pest or weed control at 100 ppm (Phakopsora pachyrhizi): 90 to 100%
pest or weed control at 100 ppm (Venturia inaequalis): 80 to 89%
pest or weed control at 500 ppm (Puccinia triticina): 90 to 100%

CC(O)(Cn1cncn1)c1cnc(Oc2ccccc2)cc1Cl (centres unmarked) [I.05]
pest or weed control at 500 ppm (Puccinia recondita): 90 to 100%
pest or weed control at 500 ppm (Sphaerotheca fuliginea): 90 to 100%
pest or weed control at 500 ppm (Uromyces appendiculatus): 90 to 100%
pest or weed control at 100 ppm (Alternaria solani): 90 to 100%
pest or weed control at 100 ppm (Phakopsora pachyrhizi): 90 to 100%
pest or weed control at 100 ppm (Venturia inaequalis): 90 to 100%
pest or weed control at 500 ppm (Puccinia triticina): 90 to 100%

CC(O)(Cn1cncn1)c1cnc(Oc2ccc(Cl)cc2)cc1C(F)(F)F (centres unmarked) [I.02, 2-[6-(4-chlorophenoxy)-4-(trifluoromethyl)-3-pyridyl]-1-(1,2,4-triazol-1-yl)propan-2-ol]
pest or weed control at 500 ppm (Puccinia recondita): 90 to 100%
pest or weed control at 500 ppm (Sphaerotheca fuliginea): 90 to 100%
pest or weed control at 500 ppm (Uromyces appendiculatus): 90 to 100%
pest or weed control at 100 ppm (Alternaria solani): 90 to 100%
pest or weed control at 100 ppm (Phakopsora pachyrhizi): 90 to 100%
pest or weed control at 100 ppm (Venturia inaequalis): 90 to 100%
pest or weed control at 500 ppm (Puccinia triticina): 90 to 100%

OC(Cn1cncn1)c1cnc(Oc2ccc(S(F)(F)(F)(F)F)cc2)cc1C(F)(F)F (centres unmarked) [I.36]
pest or weed control at 500 ppm (Puccinia recondita): 90 to 100%
pest or weed control at 500 ppm (Sphaerotheca fuliginea): 90 to 100%
pest or weed control at 500 ppm (Uromyces appendiculatus): 90 to 100%
pest or weed control at 100 ppm (Alternaria solani): 90 to 100%
pest or weed control at 100 ppm (Phakopsora pachyrhizi): 90 to 100%
pest or weed control at 100 ppm (Venturia inaequalis): 90 to 100%
pest or weed control at 500 ppm (Puccinia triticina): 90 to 100%

OC(Cn1cncn1)(c1ccc(Oc2ccc(Cl)cc2)nc1C(F)(F)F)C1CC1 (centres unmarked) [I.91, 1-[6-(4-chlorophenoxy)-2-(trifluoromethyl)-3-pyridyl]-1-cyclopropyl-2-(1,2,4-triazol-1-yl)ethanol]
pest or weed control at 500 ppm (Puccinia recondita): 90 to 100%
pest or weed control at 500 ppm (Sphaerotheca fuliginea): 90 to 100%
pest or weed control at 500 ppm (Uromyces appendiculatus): 90 to 100%
pest or weed control at 100 ppm (Phakopsora pachyrhizi): 90 to 100%
pest or weed control at 100 ppm (Venturia inaequalis): 90 to 100%
pest or weed control at 500 ppm (Puccinia triticina): 90 to 100%

OC(Cn1cncn1)c1ccc(Oc2ccc(Cl)cc2)nc1Cl (centres unmarked) [I.14]
pest or weed control at 500 ppm (Puccinia recondita): 90 to 100%
pest or weed control at 500 ppm (Sphaerotheca fuliginea): 90 to 100%
pest or weed control at 500 ppm (Uromyces appendiculatus): 90 to 100%
pest or weed control at 100 ppm (Alternaria solani): 90 to 100%
pest or weed control at 100 ppm (Phakopsora pachyrhizi): 90 to 100%
pest or weed control at 100 ppm (Venturia inaequalis): 90 to 100%
pest or weed control at 500 ppm (Puccinia triticina): 90 to 100%

OC(Cn1cncn1)c1cnc(Oc2ccc(C(F)(F)F)cc2)cc1C(F)(F)F (centres unmarked) [I.47]
pest or weed control at 500 ppm (Puccinia recondita): 90 to 100%
pest or weed control at 500 ppm (Sphaerotheca fuliginea): 90 to 100%
pest or weed control at 500 ppm (Uromyces appendiculatus): 90 to 100%
pest or weed control at 100 ppm (Alternaria solani): 90 to 100%
pest or weed control at 100 ppm (Phakopsora pachyrhizi): 90 to 100%
pest or weed control at 100 ppm (Venturia inaequalis): 90 to 100%
pest or weed control at 500 ppm (Puccinia triticina): 90 to 100%

C[C@@](O)(Cn1cncn1)c1cnc(Oc2ccc(Cl)cc2)cc1C(F)(F)F [I.45]
pest or weed control at 500 ppm (Puccinia recondita): 90 to 100%
pest or weed control at 500 ppm (Sphaerotheca fuliginea): 90 to 100%
pest or weed control at 500 ppm (Uromyces appendiculatus): 90 to 100%
pest or weed control at 100 ppm (Alternaria solani): 90 to 100%
pest or weed control at 100 ppm (Phakopsora pachyrhizi): 90 to 100%
pest or weed control at 100 ppm (Venturia inaequalis): 90 to 100%
pest or weed control at 500 ppm (Puccinia triticina): 90 to 100%

CC(O)(Cn1cncn1)c1ccc(Oc2ccc(S(F)(F)(F)(F)F)cc2)nc1Cl (centres unmarked) [I.35]
pest or weed control at 500 ppm (Puccinia recondita): 90 to 100%
pest or weed control at 500 ppm (Sphaerotheca fuliginea): 90 to 100%
pest or weed control at 500 ppm (Uromyces appendiculatus): 90 to 100%
pest or weed control at 100 ppm (Alternaria solani): 90 to 100%
pest or weed control at 100 ppm (Phakopsora pachyrhizi): 70 to 79%
pest or weed control at 100 ppm (Venturia inaequalis): 90 to 100%
pest or weed control at 500 ppm (Puccinia triticina): 90 to 100%
